Data on four compounds can be found in PMC12441861, “Next-Generation Lipid Prodrugs Orally Deliver Tenofovir via Enhanced Chylomicron Incorporation” (ACS Pharmacology & Translational Science, 2025).

Like-named read-outs stand apart in the source and are kept apart here.

Details of data set [1]: method as in Hostetler 2007. The settings on record: single oral dose, prodrug in lung and liver over 72 h; ref Hostetler 2007; cited from earlier work.
For data set [2] the following is noted: parent Cidofovir; ref Hostetler 2007; cited from earlier work.
For data set [3] the following is noted: ref Hostetler 2007; cited from earlier work.
A short description of data set [4]: Metabolic stability in human liver microsomes. The data set is classed as in vitro ADME. The settings on record: pH 7.4, read-out: Metabolic Stability HLM t1/2. How it is done:
Assays employed human liver microsomes (HLMs, 20 mg/mL) from Xenotech. A 10 mM NADPH stock was prepared in deionized H2O, and test compounds were dissolved in 100% MeOH to a final concentration of 10 mM. The stock solutions were diluted to 500 μM in 100 mM potassium phosphate buffer (pH 7.4), keeping the final MeOH concentration below 0.2%. Reaction mixtures were prepared by combining 928 μL phosphate buffer, 55 μL liver microsomes, and the test compound solution to a final concentration of 3 μM. Verapamil was used as a positive control. The reactions were initiated with the addition of 110 μL of 10 mM NADPH. Aliquots were taken in duplicate at 0, 5, 10, 15, and 30 min, quenched with 100 μL of cold MeOH containing 2 μM internal standard (d 5-7-ethoxy coumarin), and centrifuged at 12,000 RCF for 5 min. The supernatants were then transferred to LC-MS vials for analysis. The average of each duplicate was normalized to the 0 min time point, representing 100% remaining (0% metabolism).
A general note: Liver microsomes are a subcellular fraction often used to study metabolism.

The nature of data set [5]: Metabolic stability in mouse liver microsomes. The data set is classed as in vitro ADME. The settings on record: pH 7.4, read-out: Metabolic Stability MLM t1/2.
Data set [6] can be described thus: Mouse oral PK and tissue distribution, fed state. The data set is classed as in vivo. The conditions noted are these: single oral dose 10 mg/kg, fed mice. The text has this:
Given the increased packaging of the CF3-modified lipids into CMs compared to their ω-unmodified congeners, we selected these compounds for PK studies in mice. We hypothesized that, following oral administration, our modified prodrugs would favor CM-mediated transport into the lymphatics over absorption into mesenteric veins feeding into the portal system. By circumventing direct transport to the liver, these prodrugs are expected to achieve elevated levels in the lung relative to the liver, as lymph empties into the jugular venous angle and mixes with blood en route to the pulmonary arteries (Figure ). For all mouse PK experiments, prodrugs were formulated in a 9:1 mixture of olive oil and ethanol, then administered to male C57BL/6 mice via oral gavage at a dose of 10 mg/kg. Organs (liver, lung, and plasma) were harvested at 1, 2, 4, 8, and 18 h postdose, per the protocol described by our groups previously. Concentrations of prodrug were quantified using LC-MS/MS after tissue homogenization, extraction, and sample preparation.
The compounds TXL, 15a, 15b, 21a, 21b, and a vehicle control were prepared at a concentration of 1 mg/mL in a 90:10 solution of olive oil (Sigma-Aldrich, cat. No. O1514) and 190-proof ethanol. The dosing for each mouse was calculated based on individual body weights to achieve a final dose of 10 mg/kg. For example, a 20 g mouse would receive 200 μL of the 1 mg/mL drug formulation, while a 25 g mouse would receive 250 μL.
In accordance with the American Chemical Society Guidelines to Publication of Chemical Research, we affirm the use of standard ethical practices when housing and handling research animals, as ensured by the Emory University’s Institutional Animal Care and Use Committee (IACUC) and the Division of Animal Resources (DAR) through a rigorous protocol review, amendment, and approval process. A total of 220 C57BL6/J male mice (aged 11–12 weeks, weight, 22–30 g) were used for these studies. Each mouse was weighed, recorded, and ear-clipped for identification. The dosing for each mouse was calculated based on individual body weights to achieve a final dose of 10 mg/kg. Animals were anesthetized using isoflurane gas before receiving a single dose of drug prepared as described above using a 22-gauge gavage needle attached to a calibrated syringe.
Time points for tissue collection were 1, 2, 4, 8, and 18 h for unfasted mice, and 1, 2, 4, 8, and 24 h for fasted mice. At each time point, the mice (n = 4 per compound per time point) were anesthetized using isoflurane and subjected to cardiac puncture for blood collection into EDTA-coated tubes. The collected blood samples were immediately placed on ice before the mice were humanely euthanized via cervical dislocation. Brain, liver, lungs, and kidneys were harvested, rinsed in PBS, and placed in prelabeled tubes. Tissues were flash-frozen in liquid nitrogen then transferred to dry ice for storage.
Blood samples were collected into EDTA-coated tubes and centrifuged at 400 RCF for 10 min at 4 °C to separate plasma from the cellular components. The plasma layer was carefully pipetted off and stored in separate prelabeled and preweighed tubes. All tissues were stored at −80 °C until time for processing.
Tissues were weighed (∼50 mg) into homogenization tubes and ACN containing a 10 μM ITSD was added to achieve a final solvent-to-tissue ratio of 4:1. Homogenization beads were added, and the tissues were processed (Biotage Lysera, part no. 19–060) using two 20 s pulses with a 10 s interval period. Homogenate was centrifuged at maximum speed for 1 h, supernatant collected and analyzed via LC-MS using the method described previously. For plasma samples, a 50 μL aliquot was added 200 μL of ACN containing ITSD. The mixture was vortexed thoroughly and then centrifuged to precipitate proteins, with the supernatant collected and analyzed via LC-MS. […]

Data set [7] can be described thus: Cytotoxicity, ATP luminescence (Cell Titer Glow) assay. The settings on record: human, TZM-bl cells. A general note: ATP-based viability assays read luminescence as a measure of living cells.
Protocol: (§1) To measure cytotoxicity, HeLa-derived TZM-bl cells , were treated with serial dilutions of each drug, and viability was assessed after 48 h. Two methods were used: an ATP luminescence assay, which measures cellular ATP levels as an indicator of metabolic activity (compounds 8a–d), and an MTT assay, which evaluates cell viability via mitochondrial enzymatic activity (compounds 15b, 21a, and 21b).
(§2) The TZM-bl cell line (BEI Resources, ARP-8129) was used to evaluate both cell viability and HIV pseudovirus infectivity reduction. Cytotoxicity in this cell line was measured via two methods. The first method, an ATP luminescence assay, was used for compounds 15a, 15b, 21a, and 21b as such: 6000 TZM-bl cells per well were seeded in a 96-well plate and incubated at 37 °C with 5% CO2 for 24 h. Compounds were prepared as serial dilutions (final concentrations of 1, 0.2, 0.04, 0.008, and 0.0016 μM) in complete DMEM with DEAE-Dextran at 40 μg/mL to mimic HIV infectivity conditions. Solutions were added to the cells and incubated for another 48 h. Viability was assessed using the Promega Cell Titer Glow (CTG) Assay (cat No. G9242) by adding a 50% PBS-CTG solution to each well and measuring luminescence, which correlates with ATP levels, on an Agilent BioTek Synergy HT reader. Cytotoxicity of compounds 8a–d was determined using a colorimetric assay based the conversion of MTT (3-(4,5-dimethylthiazol-2-yl)-2,5-diphenyltetrazolium bromide) to formazan as described previously. TZM-bl cells were plated into 96-well tissue culture plates 1 day prior to performing the MTT assay. A series of 10 3-fold dilutions of each compound was performed from a starting concentration of 10 mM and each dilution was tested for a reduction in cell viability according to the manufacturer’s instructions (CyQuant MTT Cell Viability Assay, ThermoFisher, V13154). Wells containing TZM-bl cells with media only were used as a control. Briefly, serial dilutions of each test compound were added to the plated TZM-bl cells. At 48 h, the media was removed and replaced with 100 mL of fresh culture medium. 10 mL of 12 mM MTT solution was added to each well and incubated at 37 °C for 4 h. 85 mL of supernatant was then removed from each well and replaced with 50 mL of DMSO. Following a 10 min incubation at 37 °C, the absorbance of each well was determined at 540 nm using a Biotek Synergy Neo2 multimode reader and Gen5 v3.02 software.
Data set [8] deals with Caco-2 cell total membrane. Briefly: Drug in Caco-2 total membrane fraction versus CM fraction. The class given is in vitro ADME, human. The text has this:
Having completed this initial prodrug screening, we next sought to evaluate their ability to incorporate into CMs in vitro. For a lysoglycerolipid prodrug (e.g., TXL and BCV) to be packaged into CMs, it must first be transported into intestinal enterocytes, like Caco-2 cells, by intercalating into the outer leaflet of the plasma membrane before flipping (either actively or passively) to the inner leaflet. Subsequent membrane desorption facilitates intraenterocyte diffusion to the ER and Golgi, where CM are produced. Accordingly, we hypothesized that, even though high lipophilicity should drive prodrug association with CMs, these low hydrophilicity compounds first need to get through the plasma membrane, which could create a kinetic barrier to CM incorporation. […] Proceeding with the CM production and isolation assay as described (Scheme ), cells were harvested in parallel, and the total membrane fraction was separated from other cellular components via centrifugation through a specialized filter provided with the Minute Plasma Membrane Protein Isolation and Cell Fractionation Kit from Invent Biotechnologies (cat No. SM-005). […]
Total membrane fractionation was performed using a Minute Plasma Membrane Protein Isolation and Cell Fractionation Kit from Invent Biotechnologies (cat No. SM-005). […] The clear supernatant was collected and analyzed using LC-MS/MS.

The next data set can be described thus: Cytotoxicity, MTT assay. The settings on record: human, TZM-bl cells. Background: Tetrazolium assays rely on reduction of a dye to a coloured formazan, in cell work by metabolically active cells.

Protocol for Cytotoxicity, MTT assay: as §1, §2

As to `CCCCCCCCCCCCCCCCCCOCC(COP(=O)(O)COC(CO)Cn1ccc(N)nc1=O)OCc1ccccc1` (centres unmarked) [ODBG-CDV, 1-O-octadecyl-2-O-benzyl-sn-glycero-3-cidofovir], the “lung/liver AUC0–72h” value in [1] is reported as 2.05. In data set [2], the “Δ Oral Availability (% versus Parent)” value is on record as 32%. In data set [3], the “increase in lung delivery compared to liver” value is 13-fold increase in lung delivery compared to liver.
Turning to `C[C@H](Cn1cnc2c(N)ncnc21)OCP(=O)(O)OCCCOCCCCCCCCCCCCCCCCCC(F)(F)F` [15b, Ammonium[(1R)-2-(6-aminopurin-9-yl)-1-methyl-ethoxy]methyl-[3-(18,18,18-trifluorooctadecoxy)propoxy]phosphinate], the half-life at 3 µM in data set [4] was greater than 2 h. The half-life at 3 µM in data set [5] came to 1.52 h. Moreover, the time of peak concentration (Tmax) (commonly the time from dosing to the highest level) in data set [6] (male, C57BL/6, mouse, liver, read-out: Liver Tmax) was determined as 4 h. Further, the Tmax in data set [6] (male, C57BL/6, mouse, lung, read-out: Lung Tmax) came out at 8 h. In addition, the peak concentration (Cmax) (commonly the peak of the concentration-time curve) in [6] (male, C57BL/6, mouse, plasma) was 102 ng/mL. For the same compound, the AUC(0-t) in data set [6] (male, C57BL/6, mouse, plasma, read-out: Plasma AUC0-18h) turned out to be 1010 ng·h/mL. In addition, in [6] (male, C57BL/6, mouse, plasma, read-out: Plasma Tmax), the Tmax was 4 h. Also, in data set [6], the “Liver AUC0-18h” value was 133,000 h*ng/g, the “Liver Cmax” value was 13,400 ng/g, the “Lung AUC0-18h” value was 7,120 h*ng/g and the “Lung Cmax” value is on record as 585 ng/g. For the same compound, the CC50 (usually the concentration that lowers cell viability or growth by half) at 48 h in data set [7] was greater than 1 µM.
For `CCCCCCCCCCCCCCCCOCCCOP(=O)(O)CO[C@H](CO)Cn1ccc(N)nc1=O` [BCV, brincidofovir], the “lung/liver AUC0–72h” value in [1] is given as 0.04.
In the case of `CCCCCCCCCCCCCCCCCCOC[C@H](COP(=O)(O)CO[C@H](C)Cn1cnc2c(N)ncnc21)OCc1ccccc1` [8d, Ammonium[(1R)-2-(6-aminopurin-9-yl)-1-methyl-ethoxy]methyl-[(2R)-2-benzyloxy-3-octadecoxy-propoxy]phosphinate], the half-life at 3 µM in [4] is greater than 2 h. The “membrane concentration compared with TXL” value in data set [8] (8 h, n = 3) is on record as “significantly greater concentrations in the membrane than TXL”. The “drug in membrane fraction” value in data set [8] (20 h) is given as “undetectable”. The half-maximal cytotoxic concentration (CC50) at 48 h in the data set “Cytotoxicity, MTT assay” was greater than 10 µM.
